Assay [1] has as its system Cys residues in primary human T cells. As to the kind of experiment: isoTOP-ABPP of compound-treated primary human T cells. The conditions noted are these: MMF 50 μM 4 h; BSO 2.5 mM 4 h. Type of assay: cell-based.
The subject of assay [2] is intracellular GSH in primary human T cells. The assay can be described thus: Quantification of cellular glutathione (GSH) levels. It counts as cell-based. The conditions noted are these: DMF 50 μM 2 h; BSO 2.5 mM 4 h. The method, then:
Primary human T cells (2.5 million cells/mL, 20 mL per condition) were treated as indicated, harvested by centrifugation (500 g, 8 min, 4° C.), and washed twice with PBS. To the cell pellet was added 75 μL of lysis buffer. […] Protein concentrations were adjusted to at least 5 mg/mL and the assay performed according to manufacturer's instructions (Sigma-Aldrich, CS 1020). Data represent mean±SE for two biological replicates.

Assay [3] relates to primary human T cells. As to the kind of experiment: T cell activation markers CD25 and CD69 (flow cytometry). It counts as cell-based. The conditions noted are these: 2.5 mM, 8 h. On the procedure:
96-well plates were coated with anti-CD3 (1:200; BioXcell) and anti-CD28 (1:500; 302933; BioLegend) in PBS (100 μL/well) overnight at 4° C. The plates were then washed twice with PBS and to each well was added 500,000 primary T cells in 100 μL of RPMI supplemented with 10% FBS, glutamine, and Pen-Strep. Cells were then treated with 100 μL of media containing compound at the indicated concentrations (final well volume of 200 μL). Cells were left at 37° C. in a 5% CO2 incubator for the indicated periods of time and harvested by centrifugation (500 g, 8 min, 4° C.), followed by washing with PBS.
Flow cytometry analysis of cell surface antigens was performed with the following antibodies: Pacific Blue-conjugated anti-CD8 (1:25 dilution; clone RPA-T8; BD Biosciences), APC-conjugated anti-CD4 (1:25 dilution; clone RPA-T4; eBioscience), phycoerythrin-conjugated anti-CD25 (1:25 dilution; clone BC96; eBioscience or PC61; BioLegend (PKCθ studies)), FITC-conjugated anti-CD69 (1:25 dilution; clone FN50; eBioscience). All antibodies were diluted in 1% FBS in PBS, and 50 μL of the stain solution was added to each well. […] Flow cytometry acquisition was performed with BD FACSDivam-driven BD™ LSR II flow cytometer (Becton, Dickinson and Company). Data was then analyzed with FlowJo software (Treestar Inc.). Data represent mean±SE for four-five experiments per group.
(Flow cytometry measures light scatter and fluorescence of single cells or particles in a stream.)

In assay [4] the test system is protein targets in MDA-MB-231 cells. The assay can be described thus: Whole protein capture with click probes (SILAC proteomics), native vs heat denatured. The conditions noted are these: proteins liganded by parent fragment (3 / 14) and enriched by click probe (19 / 18). It counts as binding, human. The method, then:
Protein enrichment by 18 and 19 was measured by whole protein capture of isotopically-SILAC labeled MDA-MB-231 cells using quantitative (SILAC) proteomics.

In assay [5] the test system is IMPDH2 (C140). The assay can be described thus: Click probe 18 labeling of recombinant IMPDH2 and its competition. Type of assay: binding, human. The conditions noted are these: probe 25 μM.

For `CCCCS(=N)(=O)CCC(N)C(=O)O` (centres unmarked) [BSO, buthionine sulfoximine], in assay [1], the “alteration of the ~40 DMF-sensitive Cys residues” value is given as “none”. In addition, in assay [2], the “cellular GSH content” value is listed as “Significant reductions”. In addition, in assay [3], the “T cell activation (CD25)” value is “no effect”.

`C#CCCCCNC(=O)c1cc(NC(=O)C=C)cc(C(F)(F)F)c1` [compound 18]: in assay [4], the “percentage of quantified protein targets sensitive to heat denaturation” value came out at 73%. For the same compound, in assay [5], the “direct labeling of IMPDH2 WT and mutants by click probe” value was “labeled WT-IMPDH2 and a C331S-IMPDH2 mutant, but not the C140S or C140S/C331S mutants”.

These data come from patent publication US10670605B2, “Cysteine reactive probes and uses thereof” (The Scripps Research Institute, priority 2015, dated 2020).
